Marks after values point to notes of the source that are not given here.
Experiments:
Type in all cases: in vivo
mouse model of emphysema = test: Mouse model of emphysema / COPD (cigarette smoke)
Description: A mouse model of emphysema was used. Acute or chronic exposure of mice to cigarette smoke lead to lung responses that in part mimic the inflammatory and structural changes observed in COPD. In this model male C57Bl/6J mice are subjected to acute or chronic smoke exposure, with normal room air being the control situation. In the acute study mice were exposed to either room air or to the smoke of five cigarettes (approximately 12 mg of tar and 0.9 mg of nicotine) for 20 minutes. In the chronic study mice were exposed to either room air or to the smoke of three cigarettes/day for 5 days/week for 6 months. The 4 groups of mice were then further divided so that mice within each group also received various anionic oligosaccharide conjugates via an inhaled route.
In the acute exposure groups of mice anionic oligosaccharide conjugates were given 30 minutes before exposure to cigarette smoke. Assessment of the efficacy of the drug for mice in the acute exposure groups involved assessment of trolox equivalent anti-oxidant capacity of the bronchoalveolar lavage fluid (BALF) at the end of smoke exposure. The BALF was examined for cytokines and chemokines that are associated with an inflammatory response. The levels of these agents were determined at 4 hours after exposure and at 24 hours after cigarette smoke exposure. A range of cytokines and chemokines was measured. These included: IL-1α, IL-1β, IL-2, IL-3, IL-4, IL-5, IL-6, IL-10, IL-12, RANTES, MIP-1α, cytokine-induced neutrophil chemoattractant (KC), TNF-α and IFN-γ). A differential cell count of the cells in the BALF was also determined.
The animals in the chronic study received the anionic oligosaccharide conjugates (including ID 9) once a day for the duration of the experiment. At the completion of the experiment animals were killed and the lungs fixed intratracheally with formalin (5%) and lung volume was measured by water displacement. […] The level of desmosine in the lung tissue was also determined. […]

[1] = system: rat model of acute lung injury and ADRS; test: Rat model of acute lung injury and ARDS (LPS); settings: intra-tracheal 0.5 and 2.5 mg/kg, 30 minutes before LPS
From the text: A rat model of acute lung injury and ADRS was used (Jansson, Lung 182:1-9, 2004). The model is based on the understanding that endotoxin found in common pathogens (e.g. bacteria) can lead to the development of ARDS, septic shock and multiple organ dysfunction syndrome in the clinical situation. Lipopolysaccharide (LPS), a component of the outer membrane of gram-negative bacteria is the prototypical example of endotoxin and exposure of the respiratory tract of rats to LPS can be used as a model of acute lung inflammation and ARDS. […]
Excised lung gas volume (ELGV) is measured by Archimedes' principle and is based on the stable amount of air trapped within the excised lungs at a transpulmonary pressure of 0 cmH2O. […] A density determination kit (P3000, Mettler-Toledo GmbH, Sweden) and optional density determination software for the balance were used on the basis of the principle that every solid body immersed in fluid loses weight, and is expressed as g/cm^3. […] ELGV is determined by the difference between bracket weight and lung buoyancy in the liquid. […] Indication of lung tissue edema was calculated by the difference between lung tissue weight outside the beaker and bracket weight. The lung tissue density was determined by the ratio of the lung weight (difference between lung tissue weight outside the beaker and holder weight) and the air volume within the lung (ELGV). […]

Guinea-pig anaphylaxis = Guinea-pig anaphylaxis model (OVA); settings: for % of the animals died (anaphylaxis): 5 mg/kg intranasal 30 min prior to OVA
From the text: Guinea-pig anaphylaxis has for many years been considered the classical example of anaphylaxis, in contrast to other species (e.g. mice) that completely lack anaphylactic responses after allergen inhalation. Anaphylactic shock is believed to be due to liberation of histamine with subsequent contraction of smooth muscle after the inhalation of antigen into the airway and lungs. Contraction of the bronchial musculature completely shuts off the alveoli and prevents exhalation of air, and the animals die of asphyxia. In guinea-pigs allergen doses that are high enough to produce a significant late-phase responses (i.e. cellular eosinophilia, late phase exudation) inevitably also give rise to prior strong acute reactions that are so intense that some animals may die in acute airway constriction.
In this model the guinea pigs were sensitized to ovalbumin (OVA) twice (on days 0 and 7) by an intraperitoneal injection of 0.5 mL saline containing 100 mg Al(OH)3 and 2 μg OVA. Three weeks after the last sensitization, animals were anaesthetized and the exposure of the nasal cavity to allergen was performed by dropping OVA solution at 2 mg/mL into bilateral nasal cavities (20 μl per nasal cavity). For the negative control the animals received sensitization and challenge with saline. The animals are pretreated with either vehicle or drug (anionic oligosaccharide conjugates or Budesonide) 30 min prior to intranasal instillation of OVA. Vehicle or drugs are administered, 25 μl-50 μl/nostril. A comparison of the anionic oligosaccharide conjugates with Budesonide, as the reference compound, is included. In this study Budesonide at 0.65 mg/kg was not effective at preventing anaphylaxis as 70% of the animals in this group died by acute airway constriction.

[2] = system: allergic rhinitis model in the guinea pig; test: Allergic rhinitis model in the guinea pig (OVA); settings: for % inhibition of protein content of the nasal lavage fluid (plasma exudation): 5 mg/kg intranasal 30 min before OVA, 8 hours after challenge; for eosinophil and neutrophil infiltration into nasal lavage fluid: 5 mg/kg, 8 hours after challenge (FIG. 3)
[3] = system: guinea pig model of asthma; test: Guinea pig model of asthma (OVA)
[4] = 0.1 mg/kg pretreatment (FIG. 5)
[5] = drug 0.1 mg/kg intra-tracheal, MCh (10 mg/mL)
[6] = drug 0.1 mg/kg intra-tracheal, MCh (30 mg/mL)
[7] = drug 2.5 mg/kg intra-tracheal, MCh (10 mg/mL)
[8] = drug 2.5 mg/kg intra-tracheal, MCh (30 mg/mL)

Compound | numbers of neutrophils in BALF (mouse model of emphysema; acute cigarette smoke exposure) | cellular infiltrate into BALF (mouse model of emphysema; acute cigarette smoke exposure, inhaled 30 minutes before exposure) | anti-inflammatory activity in COPD model (mouse model of emphysema; chronic smoke exposure, once a day) | inhibition of neutrophil infiltration (BAL) [1] | % of the animals died (anaphylaxis) (Guinea-pig anaphylaxis) | % inhibition of protein content of the nasal lavage fluid (plasma exudation) [2] | eosinophil and neutrophil infiltration into nasal lavage fluid [2] | inhibition of OVA induced leukocyte influx in BAL [3, 4] | inhibition of OVA induced leukocyte influx in BAL ([3]; 2.5 mg/kg pretreatment (FIG. 5)) | AHR: Cdyn, % increase from that of the positive control [3, 5] | AHR: RL, % inhibition from that of the positive control [3, 5] | AHR: Cdyn, % increase from that of the positive control [3, 6] | AHR: RL, % inhibition from that of the positive control [3, 6] | AHR: Cdyn, % increase from that of the positive control [3, 7] | AHR: RL, % inhibition from that of the positive control [3, 7] | AHR: Cdyn, % increase from that of the positive control [3, 8] | AHR: RL, % inhibition from that of the positive control [3, 8] | antigen induced elevated protein content of BAL ([3]; even at 0.1 mg/kg (FIG. 4)) | lung function: development of Cdyn and RL ([3]; methacholine evoked bronchoconstriction, 8 hours after provocation) | % of the animals died by acute airway constriction (Guinea-pig anaphylaxis; 0.65 mg/kg intranasal 30 min prior to OVA)
(Maltopentaose)-Et4-(Maltopentaose) [ID 9] | significantly attenuated | decreased the cellular infiltrate into BALF | could act as anti-inflammatory agents | marked | 35% | 51.5% | particularly effective at blocking not only eosinophil infiltration but also neutrophil infiltration | 62% | 85% | 76.6%** | 75.3%* | 90%** | 84.4%** | 68.7%* | 80.5%** | 128.4%** | 99.5%** | very effectively inhibits the elevated protein content of BAL | inhibited the development of both Cdyn and RL | 
CCCC1O[C@@H]2C[C@H]3[C@@H]4CCC5=CC(=O)C=C[C@]5(C)[C@H]4[C@@H](O)C[C@]3(C)[C@]2(C(=O)CO)O1 (some centres unmarked) [Budesonide, reference compound] |  |  |  |  |  |  |  | 76% |  | 97.2%** | 86.5%** | 116.2%** | 105%** | 19.7% | −89.4% | 70.9%** | 98.9%** |  |  | 70%
(Maltopentaose)-(Et2)-(Maltopentaose) [ID 7] |  |  |  |  | 27% | 91.4% | only blocked eosinophils |  |  |  |  |  |  |  |  |  |  |  |  | 

Reference: patent US8597632B2, “Anionic oligosaccharide conjugates” (Glycan Biosciences LLC, priority 2008, dated 2013)
